Values quoted from earlier work as cited in patent publication US20040014955A1, “Identification of essential genes of cryptococcus neoformans and methods of use” (priority 2001, published 2004).
*1 amine or outer side, *2 acyl side, *3 side chain or, on linkers, in order; H or OH if unused. Where a SMILES comes first, the peptide text is derived from it. [ ]: non-standard residue; d: D form. X1 = CC[C@@H](C)[C@@H](O[*:1])C(=O)[*:2]; NMeVal(β-OH) = CN[C@H](C(=O)O)C(C)(C)O; NMeF = CN[C@@H](Cc1ccccc1)C(=O)O; NMeV = CN[C@H](C(=O)O)C(C)C

System: C. neoformans
Conditions: weanling outbred rats infected with C. neoformans by direct percranial puncture and inoculation into the cranium

For `CC[C@@H](C)[C@H]1OC(=O)[C@H](C(C)(C)O)N(C)C(=O)[C@H](CC(C)C)NC(=O)[C@H](C(C)C)N(C)C(=O)[C@H]([C@@H](C)CC)NC(=O)[C@@H]2CCCN2C(=O)[C@H](Cc2ccccc2)N(C)C(=O)[C@H](Cc2ccccc2)NC(=O)[C@H](C(C)C)N(C)C1=O` [LY295337] (cyclo(F[NMeF]PI[NMeV]L[NMeVal(β-OH)][X1][NMeV])), the “fungal counts in brain tissue” value is given as “reducing fungal counts in brain tissue” and the survival is given as “effective in prolonging survival”.
